Data from US20240317792A1, “CYCLIC DINUCLEOTIDE METAL COMPOUND, AND PREPARATION AND APPLICATION THEREOF” (HANGZHOU XINGAO BIOTECHNOLOGY CO., LTD., priority 2022, published 2024).

Columns and labels:
[1] = tested on: ICR mice with ischemic cerebrovascular injury; experiment: MCAO ischemic cerebrovascular injury model, Zea longa behavioral score; assay type: in vivo; design: key: Zea longa: 0 = no neurological deficit, 4 = no spontaneous walking; conditions: 10 mg/kg intraperitoneal, Zea longa 5-point score
Procedure: Experimental animals: healthy male Institute of Cancer Research (ICR) mice, weighing 18-20 grams, purchased from Shanghai SLAC Laboratory Animal Co. Ltd, with quality certificate No. (SCXK (Shanghai) 2007-0005), and kept in clean animal houses.
Mouse model: an ischemic cerebrovascular injury model was prepared by a middle cerebral artery occlusion (MCAO) method to verify therapeutic effect of the cyclic dinucleotide metal compounds on ischemic cerebrovascular diseases in the experimental animals.
Experimental method: the ICR mice were anesthetized with 10 wt. % of chloral hydrate by intraperitoneal injection, a mid-cervical incision was made to isolate and ligate a proximal segment, a carotid artery and a branch vessel of a right common carotid artery. A right internal carotid artery was isolated, a pterygoid artery was isolated down along the right internal carotid artery followed by root ligation. A wire was prepared on the proximal segment, and an arterial clip was placed on a distal segment. An incision was made at a branch of the right common carotid artery, and a nylon wire was tied in. A monofilament entered the internal carotid artery, a cranium to an anterior cerebral artery to block all sources of blood flow in a middle cerebral artery. The arterial clip was removed, and the wire prepared on the proximal segment was tied in followed by skin suture. The experimental animals were subjected to cage culture after operation. 2 h after the ischemia, the experimental animals were subjected to abdominal administration by injection, and the nylon wire was removed for reperfusion. 8 h after the reperfusion, the experimental animals were subjected to re-administration. After the operation, behavioral score was performed using a single-blind method with reference to the Zea longa 5-point scoring system, which was shown as follows: 0 point, normal performance with no neurological deficits; 1 point, contralateral forepaws could not fully extend; 2 points, circling to the opposite side when walking; 3 points, falling to the opposite side; 4 points, no spontaneous walking and loss of consciousness.
In the experiment, the ICR mice were divided into 7 groups (10 mice in each group). The 7 groups were listed as follows: A: AD model group, as a negative control group (administration: normal saline); B: cGAMP group, as a positive control group (administration: cyclic dinucleotide); C: [Li2(cGAMP)] group (administration: lithium cyclic dinucleotide prepared in Example 1); D: [Mg(cGAMP)] group (administration: magnesium cyclic dinucleotide prepared in Example 2); E: [Zn(cGAMP)] group (administration: zinc cyclic dinucleotide prepared in Example 5); F: [Mn(cGAMP)] group (administration: manganese cyclic dinucleotide prepared in Example 3); G: [Fe(cGAMP)] group (administration: ferrous cyclic dinucleotide prepared in Example 4); where a preparation method for administration in groups C-G were as follows. Powders prepared in the groups C-G were prepared to solutions of required concentration with normal saline. The administration dosage of every group was 10 mg/kg. And the ICR mice were administered by intraperitoneal injection. The ICR mice were administered once after 2 h of ischemia, then the nylon wire was removed for reperfusion. 8 h after the reperfusion, the ICR mice were administered once. After 24 h, the ICR mice were administered once a day for 7 consecutive days.

IRI mice (male SD mice) = experiment: Cerebral ischemia-reperfusion injury (IRI) model, TTC dyeing; assay type: in vivo; conditions: 2 h ischemia, 24 h reperfusion; caudal vein injection 5 mg/kg (Edaravone 6 mg/kg) after 30 min ischemia
Procedure: Experimental animals: healthy male mice, weighing 280-300 grams, purchased from Shanghai SLAC Laboratory Animal Co. Ltd, with quality certificate No. (SCXK (Shanghai) 2007-0005), and kept in clean animal houses.
Establishment of a mouse cerebral ischemia model of mice and experimental method: 280-300 grams of male […] mice were selected for experiments. The male SD mice were subjected to fasting without water deprivation for 12 h before operation followed by weighing, numbering and random grouping. The male SD mice were anesthetized by intraperitoneal injection of 10 wt. % chloral hydrate at a dosage of 0.3 mL/100 g. After the male SD mice had no pain reflexes, they were subjected to neck skin preparation followed by being fixed on a dissecting table in supine position. After neck skins were disinfected with sterilized cotton balls, about 1 cm of the neck skins were cut in mid-cervical to expose subcutaneous tissues, and subcutaneous fat and the fascia were bluntly plucked with curved tweezers to expose neck muscle groups. The common carotid arteries and their upwardly internal and external carotid branches were visualized by opening the digastric muscle. The external, internal, and common carotid arteries were carefully dissected, and a thin wire was threaded under each of the three arteries, and homemade plastic spacers were placed under the common carotid arteries. The external carotid arteries and proximal ends of the common carotid arteries were ligated. After the internal common carotid arteries were clamped by arterial clips, the common carotid arteries were stuck into with homemade curved hooks followed by picking up and leading in monofilaments. The spacers were removed, and the monofilaments were gently pushed into the internal common carotid arteries and craniums. […] At this time, blood supplies of the middle cerebral arteries from the anterior cerebral arteries were blocked. Thin wires under the internal carotid arteries were ligated to secure the monofilaments to prevent the monofilaments from retreating. Excess thin wires were cut, penicillin was applied to wounds to prevent infection. The male SD mice were sutured and placed under a warm lamp to keep warm. Timing was performed when blood flows of the middle cerebral arteries were blocked by the monofilaments. After 2 hours, the monofilaments were gently pulled out and the black marks were seen, then reperfusion can be achieved.
Triphenyl tetrazolium chloride (TTC) dyeing: After being injured by 2 h cerebral ischemia and 24 h reperfusion, the male SD mice were anesthetized with 0.3 mL/100 g dosage of 10 wt. % of chloral hydrate by intraperitoneal injection and subjected to abdominal aorta bleeding to reduce influence of blood in brains. Then whole heads of the male SD mice were removed immediately after decapitating, and washed with normal saline followed by being promptly put into a −20° C. refrigerator to freeze for 20 min. Frozen brains were collected and subjected to coronal sections, each 2 mm of thickness, by a blade. Then the coronal sections were subjected to dark dyeing in a 2 wt. % of TTC solution for 20 min and fixing in a 4 wt. % of polyformaldehyde solution for 6 h followed by photographing. Then, Photoshop software was used to define area and calculate, and a formula was represented as a percentage of cerebral ischemic area=a total area of white area/a total area of ischemic hemisphere×100%.
Drug preparation and experimental grouping: Edaravone was used as a positive control drug, and an Edaravone injection was 30 mg/20 mL. A single dosage for each of the male SD mice was 0.4 mL/100 g, that is, 6 mg/kg. The cyclic dinucleotide metal compounds prepared in Examples 1-5 were prepared into […] injection drugs with the normal saline. Each of the male SD mice was subjected to caudal vein injection with 0.4 mL/100 g dosage of drugs, that is, 5 mg/kg. The male SD mice were divided into 8 groups (10 mice in each group). […]

Nc1nc2c(ncn2C2OC3COP(=O)([O-])OC4C(COP(=O)([O-])OC2C3O)OC(n2cnc3c(N)ncnc32)C4O)c(=O)[nH]1.[Fe+2] (stereo not drawn) [[Fe(cGAMP)], ferrous cyclic dinucleotide]
Score (7 h after operation) [1]: 1.41 ± 0.29
Score (24 h after operation) [1]: 1.67 ± 0.35
Average value of percentage of cerebral ischemic area (IRI mice (male SD mice)): 26.78%

Nc1nc2c(ncn2[C@@H]2O[C@@H]3COP(=O)([O-])O[C@H]4[C@@H](O)[C@H](n5cnc6c(N)ncnc65)O[C@@H]4COP(=O)([O-])O[C@@H]2[C@@H]3O)c(=O)[nH]1.[Li+].[Li+] [[Li2(cGAMP)], lithium cyclic dinucleotide]
Score (7 h after operation) [1]: 1.49 ± 0.26
Score (24 h after operation) [1]: 1.82 ± 0.19
Average value of percentage of cerebral ischemic area (IRI mice (male SD mice)): 25.25%

Nc1nc2c(ncn2[C@@H]2O[C@@H]3COP(=O)([O-])O[C@H]4[C@@H](O)[C@H](n5cnc6c(N)ncnc65)O[C@@H]4COP(=O)([O-])O[C@@H]2[C@@H]3O)c(=O)[nH]1.[Mg+2] [[Mg(cGAMP)], magnesium cyclic dinucleotide]
Score (7 h after operation) [1]: 1.09 ± 0.18
Score (24 h after operation) [1]: 1.18 ± 0.24
Average value of percentage of cerebral ischemic area (IRI mice (male SD mice)): 18.16%

Nc1nc2c(ncn2C2OC3COP(=O)([O-])OC4C(COP(=O)([O-])OC2C3O)OC(n2cnc3c(N)ncnc32)C4O)c(=O)[nH]1.[Mn+2] (stereo not drawn) [[Mn(cGAMP)], manganese cyclic dinucleotide]
Score (7 h after operation) [1]: 1.38 ± 0.27
Score (24 h after operation) [1]: 1.62 ± 0.39
Average value of percentage of cerebral ischemic area (IRI mice (male SD mice)): 25.56%

Nc1nc2c(ncn2[C@@H]2O[C@@H]3COP(=O)([O-])O[C@H]4[C@@H](O)[C@H](n5cnc6c(N)ncnc65)O[C@@H]4COP(=O)([O-])O[C@@H]2[C@@H]3O)c(=O)[nH]1.[Zn+2] [[Zn(cGAMP)], zinc cyclic dinucleotide]
Score (7 h after operation) [1]: 1.31 ± 0.15
Score (24 h after operation) [1]: 1.57 ± 0.38
Average value of percentage of cerebral ischemic area (IRI mice (male SD mice)): 23.52%

Nc1nc2c(ncn2[C@@H]2O[C@@H]3COP(=O)(O)O[C@H]4[C@@H](O)[C@H](n5cnc6c(N)ncnc65)O[C@@H]4COP(=O)(O)O[C@@H]2[C@@H]3O)c(=O)[nH]1 [cGAMP, 2′3′-cGAMP, reference compound]
Score (7 h after operation) [1]: 1.67 ± 0.41
Score (24 h after operation) [1]: 2.15 ± 0.32
Average value of percentage of cerebral ischemic area (IRI mice (male SD mice)): 26.86%
